Results on four compounds are retold here after patent publication US20230250064A1, “PREPARATION METHOD FOR FUSED PYRAZOLE-TYPE COMPOUND” (SHANGHAI MEIYUE BIOTECH DEVELOPMENT CO., LTD., priority 2020, published 2023).

The target of the assay is T1, human IRAK4 (Homo sapiens, UniProt Q9NWZ3).
T1 construct: purchased Carna
T1 sequence (Q9NWZ3 1-460): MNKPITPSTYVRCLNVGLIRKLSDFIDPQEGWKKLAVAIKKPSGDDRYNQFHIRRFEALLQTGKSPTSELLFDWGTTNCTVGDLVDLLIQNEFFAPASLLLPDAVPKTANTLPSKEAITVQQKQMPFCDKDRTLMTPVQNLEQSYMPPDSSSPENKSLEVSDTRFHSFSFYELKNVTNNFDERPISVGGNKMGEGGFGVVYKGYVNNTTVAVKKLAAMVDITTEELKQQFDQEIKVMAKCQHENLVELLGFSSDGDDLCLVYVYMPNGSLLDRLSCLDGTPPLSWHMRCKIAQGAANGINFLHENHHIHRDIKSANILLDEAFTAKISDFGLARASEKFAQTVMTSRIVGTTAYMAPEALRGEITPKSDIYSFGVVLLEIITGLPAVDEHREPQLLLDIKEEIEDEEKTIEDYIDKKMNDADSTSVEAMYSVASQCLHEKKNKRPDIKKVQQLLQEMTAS
The assay is described as follows: IRAK4 MSA (Mobility-Shift Assay), inhibition of human IRAK4 kinase activity. It counts as biochemical. The conditions noted are these: GST-IRAK4 1 nM, ATP at Km concentration (37 μM), 28° C. for 1 h, Caliper EZ Reader; read-out: IC50 against human IRAK4 kinase activity. The procedure: The inhibitory activity of the compounds against IRAK4 at the Km concentration of ATP was measured in IRAK4 MSA (Mobility-Shift Assay, a mobility detection of microfluidic chip technology).
A recombinant fusion protein of N-terminal GST (glutathione-S-transferase) and human IRAK4 was used as enzyme (GST-IRAK4, kinase IRAK4 (Carna)) at a final concentration of 1 nM; ATP (Sigma) was at a final concentration of 37 μM; the substrates used for the kinase reaction were 5-FAM (5-carboxyfluorescein)-labeled polypeptide (5-FAM-IPTSPITTTYFFFKKK-COOH) and substrate peptide FAM-P8 (GL Biochem) at final concentrations of 5 μM.
In this assay, a 500 μM stock solution of the compounds was prepared in 100% DMSO, and serially 4-fold diluted to the 10th concentrations with 100% DMSO, followed by a 10-fold dilution with the compound buffer (50 mM HEPES, pH 7.5, 0.00015% Brij-35) to give intermediate dilutions of the compounds at final concentrations of 10 μM-0.04 nM containing 10% DMSO. The intermediate dilutions was transferred into a black 384-well plate at a volume of 5μL.
Kinase IRAK4 was diluted to 2.5 nM with the kinase buffer (50 mM HEPES, pH 7.5, 0.00015% Brij-35, 2 mM DTT). 10 μL of the IRAK4 dilution was transferred to the 384-well plate and co-incubated with the compound for 10-15 min.
The substrate and ATP were diluted to 12.5 μM and 92.5 μM with reaction buffer (50 mM HEPES, pH 7.5, 0.00015% Brij-35, 10 mM MgCl2), respectively. 10 μL of the dilutions was transferred to the 384-well plate and incubated at 28° C. for 1 h. The reaction was terminated by adding 25 μL of 50 mM EDTA to the 384-well plate.
The inhibition rates of IRAK4 by the compounds were calculated by measuring the conversion rate of phosphorylation of the substrate using a Caliper EZ Reader (PerkinElmer) and the IC50 was calculated by XL-fit software.
For orientation: IC50 means the concentration that inhibits the measured activity by half. For the compound “quinoline-8-carbomoylic acid [2-(4′-hydroxy-4-methyl-cyclohexyl)-6-methoxy-2H-indazol-5-yl]-amide [Compound 3]”, the half-inhibitory concentration (IC50) was determined as 3.3 nM.
Next, `COc1cc2nn([C@H]3C[C@H](C(C)(C)O)C3)cc2cc1NC(=O)c1cccc(C(F)(F)F)n1` [Compound 1, 6-trifluoromethyl-pyridine-2-carbomoylic acid {2-[3′-(1-hydroxy-1-methyl-ethyl)-cyclobutyl]-6-methoxy-2H-indazol-5-yl} -amide]: 1.1 nM; `COc1cc2nn([C@H]3CC[C@](C)(O)CC3)cc2cc1NC(=O)c1cccc(C)[n+]1[O-]` [Compound 4, 6-methyl-1oxo-pyridine-2-carbomoylic acid [2-(4′-hydroxy-4-methyl-cyclohexyl)-6-methoxy-2H-indazol-5-yl]-amide]: 4.6 nM.
Next, `COc1cc2nn([C@H]3CC[C@H](O)CC3)cc2cc1NC(=O)c1cccc(C2CC2)[n+]1[O-]` [Compound 2, 6-cyclopropyl-1-oxy-pyridine-2-carbomoylic acid [2-(4′-hydroxy-trans-cyclohexyl)-6-methoxy-2H-indazol-5-yl]-amide]: 2.5 nM.
